The compounds below were run against T1, human CRTH2 (Homo sapiens, UniProt Q9Y5Y4) (assay: CRTH-2 binding assay (scintillation proximity assay, inhibition of 3H-PGD2 binding)). Details: membranes from 293EBNA-hCRTH2 cells, 3H-PGD2 3.6 nM; Ki calculated from IC50.
T1 sequence (Q9Y5Y4 1-395): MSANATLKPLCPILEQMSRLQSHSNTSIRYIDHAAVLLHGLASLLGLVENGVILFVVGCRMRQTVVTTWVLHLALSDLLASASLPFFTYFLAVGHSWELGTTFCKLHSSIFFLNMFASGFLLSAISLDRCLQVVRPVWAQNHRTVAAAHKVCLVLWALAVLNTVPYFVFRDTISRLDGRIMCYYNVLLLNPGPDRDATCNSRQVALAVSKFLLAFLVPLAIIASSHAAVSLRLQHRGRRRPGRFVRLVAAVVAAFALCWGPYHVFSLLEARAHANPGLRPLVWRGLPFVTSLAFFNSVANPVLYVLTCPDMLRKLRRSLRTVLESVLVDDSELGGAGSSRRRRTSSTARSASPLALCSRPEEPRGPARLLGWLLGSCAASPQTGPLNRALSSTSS
Design: expressed in transfected cells; host or cells: 293EBNA-hCRTH2 cells (membrane preparation)
Procedure: A CRTH2 binding assay was developed to measure the ability of compounds to inhibit the binding of PGD2 to human CRTH2 using a scintillation proximity assay.
Membranes containing hCRTH2 receptors were prepared from 293EBNA-hCRTH2 cells (a 293EBNA cell line stably expressing human CRTH2). The cells were grown to confluency, harvested and washed with PBS. The cells were resuspended in 10 mM Hepes pH 7.4, 1 mM EDTA and protease inhibitors and incubated for 30 min on ice. The cells were homogenized and centrifuged for 10 min at 1000×g. The supernate was centrifuged for 30 min at 100,000×g and the membrane pellet was then resuspended in 10 mM Hepes pH 7.4 and 1 mM EDTA. The protein concentration of the membrane preparation was determined by Bradford assay (Bio-Rad).
The ability of compounds to inhibit the interaction of PGD2 to human CRTH2 was determined at seven compound concentrations. Compounds were serially diluted in DMSO then diluted into CRTH2 buffer (10 mM Hepes pH 7.4, 1 mM EDTA, 10 mM MnCl2) to six times the final desired concentration. 20 μL of the diluted compounds were transferred into non-surface binding 96-well plates (Corning). Each concentration was done in triplicate. In addition to test compounds, each plate contained 12 control wells. Six of these wells contained 20 μL of CRTH2 buffer. These wells were used to measure total binding. Six wells contained 20 μL of CRTH2 buffer plus 1.5 mM indomethacin. These wells were used to measure non-specific binding. Next, 293EBNA-hCRTH2 membranes were resuspended in CRTH2 buffer with glycerol (10 mM Hepes pH 7.4, 1 mM EDTA, 10 mM MnCl2, 25% glycerol) so that the final concentration was approximately 20 μg/100 μL. Polylysine-coated yttrium silicate SPA beads (Amersham) were added to the membrane mix to a concentration of 0.4 mg/100 μL and finally ^3H-PGD2 was added to the membrane/SPA bead mix to 3.6 nM. 100 μL of the membrane/SPA bead/^3H-PGD2 mix was added to each well of the non-surface binding plates containing the diluted compound or controls. The plates were incubated for 2 hours at room temperature with shaking and then the plates were counted on a Microbeta scintillation counter (Perkin Elmer) for 1 min per well.
IC50 values were determined from the experimental results by nonlinear regression using Prism 4.0 software. The IC50 values were then used in conjunction with the Kd for hCRTH2 and the ^3H-PGD2 concentration used in the experiment to calculate the Ki for each compound.

Compound	Ki
CCCc1nc2c(N(CCOC)S(=O)(=O)c3cccc(F)c3)cccc2n1CC(=O)O [Example 35, {4-[(3-Fluoro-benzenesulfonyl)-(2-methoxy-ethyl)-amino]-2-propyl-benzoimidazol-1-yl}-acetic acid]	< 10000 nM
CCCc1nc2c(N(CCC(C)C)S(=O)(=O)c3cccc(F)c3)cccc2n1CC(=O)O [Example 36, {4-[(3-Fluoro-benzenesulfonyl)-(3-methyl-butyl)-amino]-2-propyl-benzoimidazol-1-yl}-acetic acid]	< 1000 nM
CCCc1nc2c(N(Cc3ccc(F)cc3)S(=O)(=O)c3cccc(F)c3)cccc2n1CC(=O)O [Example 37, {4-[(3 -Fluoro-benzenesulfonyl)-(4-fluoro-benzyl)-amino]-2-propyl-benzoimidazol-1-yl}-acetic acid]	< 1000 nM
CCCc1nc2c(N(C(C)C)S(=O)(=O)c3cccc(F)c3)cccc2n1CC(=O)O [Example 38, {4-[(3-Fluoro-benzenesulfonyl)-isopropyl-amino]-2-propyl-benzoimidazol-1-yl}-acetic acid]	< 10000 nM
CCCc1nc2c(N(Cc3ccccc3)S(=O)(=O)Cc3ccc(F)cc3)cccc2n1CC(=O)O [Example 39, {4-[Benzyl-(4-fluoro-phenylmethanesulfonyl)-amino]-2-propyl-benzoimidazol-1-yl}-acetic acid]	< 1000 nM
CCCc1nc2cccc(N(Cc3ccccc3)S(=O)(=O)c3ccc(F)cc3)c2n1CC(=O)O [Example 40, {7-[Benzyl-(4-fluoro-benzenesulfonyl)-amino]-2-propyl-benzoimidazol-1-yl}-acetic acid]	> 10000 nM
CCCc1nc2cc(N(Cc3cccc(Cl)c3Cl)S(=O)(=O)c3ccc(F)cc3)ccc2n1CC(=O)O [Example 44, {5-[(2,3-Dichloro-benzyl)-(4-fluoro-benzenesulfonyl)-amino]-2-propyl-benzoimidazol-1-yl}-acetic acid]	< 100 nM
CCCc1nc2cc(N(Cc3ccccc3C(F)(F)F)S(=O)(=O)c3ccc(F)cc3)ccc2n1CC(=O)O [Example 45, {5-[(2-Trifluoromethyl-benzyl)-(4-fluoro-benzenesulfonyl)-amino]-2-propyl-benzoimidazol-1-yl}-acetic acid]	< 1000 nM
CCCc1nc2cc(N(Cc3cccc(C(F)(F)F)c3)S(=O)(=O)c3ccc(F)cc3)ccc2n1CC(=O)O [Example 51, {5-[(4-Fluoro-benzenesulfonyl)-(3-trifluoromethyl-benzyl)-amino]-2-propyl-benzoimidazol-1-yl}-acetic acid]	< 1000 nM
CCCc1nc2cc(N(Cc3ccc(C#N)cc3)S(=O)(=O)c3ccc(F)cc3)ccc2n1CC(=O)O [Example 52, {5-[(4-Cyano-benzyl)-(4-fluoro-benzenesulfonyl)-amino]-2-propyl-benzoimidazol-1-yl}-acetic acid]	< 100 nM
CCCc1nc2cc(N(Cc3ccc(OC(F)(F)F)cc3)S(=O)(=O)c3ccc(F)cc3)ccc2n1CC(=O)O [Example 53, {5-[(4-Trifluoromethoxy-benzyl)-(4-fluoro-benzenesulfonyl)-amino]-2-propyl-benzoimidazol-1-yl}-acetic acid]	< 100 nM
CCCc1nc2cc(N(Cc3nc4ccccc4s3)S(=O)(=O)c3ccc(F)cc3)ccc2n1CC(=O)O [Example 55, {5-[Benzothiazol-2-ylmethyl-(4-fluoro-benzenesulfonyl)-amino]-2-propyl-benzoimidazol-1-yl}-acetic acid]	< 100 nM
C/C=C/CN(c1ccc2c(c1)nc(CCC)n2CC(=O)O)S(=O)(=O)c1ccc(F)cc1 [Example 56, {5-[But-2-enyl-(4-fluoro-benzenesulfonyl)-amino]-2-propyl-benzoimidazol-1-yl}-acetic acid]	< 100 nM

Second part, the compound after the results:

Ki	Compound
< 1000 nM	CCCc1nc2cc(N(Cc3ccc(F)cc3)C(=O)C3CC3)ccc2n1CC(=O)O [Example 31, {5-[Cyclopropanecarbonyl-(4-fluoro-benzyl)-amino]-2-propyl-benzoimidazol-1-yl}-acetic acid]
< 1000 nM	CCCc1nc2cc(N(Cc3ccc(F)cc3)C(=O)c3ccccc3)ccc2n1CC(=O)O [Example 32, {5-[Benzoyl-(4-fluoro-benzyl)-amino]-2-propyl-benzoimidazol-1-yl}-acetic acid]
< 100 nM	CCCc1nc2cc(N(Cc3ccc(F)cc3)C(C)=O)ccc2n1CC(=O)O [Example 33, {5-[Acetyl-(4-fluoro-benzyl)-amino]-2-propyl-benzoimidazol-1-yl}-acetic acid]
< 1000 nM	CCCc1nc2c(N(Cc3ccccc3)S(=O)(=O)c3cccc(F)c3)cccc2n1CC(=O)O [Example 34, {4-[Benzyl-(3-fluoro-benzenesulfonyl)-amino]-2-propyl-benzoimidazol-1-yl}-acetic acid]
< 100 nM	CCCc1nc2cc(N(Cc3ccccc3Cl)S(=O)(=O)c3ccc(F)cc3)ccc2n1CC(=O)O [Example 41, {5-[(2-Chloro-benzyl)-(4-fluoro-benzenesulfonyl)-amino]-2-propyl-benzoimidazol-1-yl}-acetic acid]
< 100 nM	CCCc1nc2cc(N(Cc3cccc(Cl)c3)S(=O)(=O)c3ccc(F)cc3)ccc2n1CC(=O)O [Example 42, {5-[(3 -Chloro-benzyl)-(4-fluoro-benzenesulfonyl)-amino]-2-propyl-benzoimidazol-1-yl}-acetic acid]
< 100 nM	CCCc1nc2cc(N(CCCc3ccccc3)S(=O)(=O)c3ccc(F)cc3)ccc2n1CC(=O)O [Example 48, {5-[(4-Fluoro-benzenesulfonyl)-(3-phenyl-propyl)-amino]-2-propyl-benzoimidazol-1-yl}-acetic acid]
< 1000 nM	CCCc1nc2cc(N(Cc3cccc(F)c3)S(=O)(=O)c3ccc(F)cc3)ccc2n1CC(=O)O [Example 50, {5-[(4-Fluoro-benzenesulfonyl)-(3-fluoro-benzyl)-amino]-2-propyl-benzoimidazol-1-yl}-acetic acid]
< 1000 nM	CCCc1nc2cc(N(Cc3ccccc3C#N)S(=O)(=O)c3ccc(F)cc3)ccc2n1CC(=O)O [Example 54, {5-[(2-Cyano-benzyl)-(4-fluoro-benzenesulfonyl)-amino]-2-propyl-benzoimidazol-1-yl}-acetic acid]
< 10000 nM	CCCc1nc2cc(N(Cc3ccccc3)C(C)=O)ccc2n1CC(=O)O [Example 57, [5-(Acetyl-benzyl-amino)-2-propyl-benzoimidazol-1-yl]-acetic acid]
> 10000 nM	CCCc1nc2cc(N(Cc3ccccc3)C(=O)C(C)C)ccc2n1CC(=O)O [Example 58, [5-(Benzyl-isobutyryl-amino)-2-propyl-benzoimidazol-1-yl]-acetic acid]
< 10000 nM	CCCc1nc2cc(N(Cc3ccccc3)C(=O)CC(C)C)ccc2n1CC(=O)O [Example 59, {5-[Benzyl-(3-methyl-butyryl)-amino]-2-propyl-benzoimidazol-1-yl}-acetic acid]
< 10000 nM	CCCc1nc2cc(N(Cc3ccccc3)C(=O)C3CCCC3)ccc2n1CC(=O)O [Example 60, [5-(Benzyl-cyclopentanecarbonyl-amino)-2-propyl-benzoimidazol-1-yl]-acetic acid]
< 10000 nM	CCCc1nc2cc(N(Cc3ccccc3)C(=O)C3CCCCC3)ccc2n1CC(=O)O [Example 61, [5-(Benzyl-cyclohexanecarbonyl-amino)-2-propyl-benzoimidazol-1-yl]-acetic acid]
< 1000 nM	CCCc1nc2cc(N(Cc3ccccc3)C(=O)c3cccc(Cl)c3)ccc2n1CC(=O)O [Example 62, {5-[Benzyl-(3-chloro-benzoyl)-amino]-2-propyl-benzoimidazol-1-yl}-acetic acid]
< 1000 nM	CCCc1nc2cc(N(Cc3ccccc3)C(=O)c3ccc(Cl)cc3)ccc2n1CC(=O)O [Example 63, {5-[Benzyl-(4-chloro-benzoyl)-amino]-2-propyl-benzoimidazol-1-yl}-acetic acid]
